# Tested on: SD male rats
# Test: Conditioned place preference (CPP) test: recovery after acquisition of methamphetamine-induced psychological dependence
# Assay type: in vivo
# Settings: 0.3 mg/kg subcutaneous twice per day, after methamphetamine (2.0 mg/kg s.c.) conditioning
# Excerpt: Effect of Compound 1 in Promoting the Recovery Process after Acquisition of Psychological Dependence by a Stimulant Drug (Therapeutic Effect for Stimulant Drug Dependence)
# The effect of compound 1 in promoting recovery during the convalescence after the acquisition of psychological dependence by a stimulant drug was discussed using the conditioned place preference method (Suzuki, T., et al., Psychopharmacology, 102, 438, 1990; Spyraki, C., The Psychopharmacology of Addiction, p. 96, Oxford Medical Publication, New York, 1988; hereinafter called “CPP method”). As a stimulant drug forming psychological dependence, methamphetamine hydrochloride was used. Furthermore, as a therapeutic agent for drug dependence, compound 1 was used.
# For the experiment, SD male rats were used. The experimental apparatus used was a CPP apparatus having two compartments (one black, the other white). In the experiment, at first, the rats were trained for being conditioned with the sensory effect of the drug and the environments (white and black) in the apparatus for 6 days. The conditioned rats were placed and tested in the apparatus without drug administration. The drug dependence was evaluated with the residence time of the rats in the white and black boxes in the test session, as an indicator, in reference to whether the rats preferred the drug-induced sensory effect. […]
smiles,measurement,setting,value
Oc1ccc2c3c1O[C@H]1c4c(c5cc(F)cc6c5n4CCC6)C[C@@]4(O)[C@@H](C2)N(CC2CC2)CC[C@]314 [Compound 1],recovery from the state of stimulant drug dependence (CPP residence time),"7th day after start of administration, significance level 5% or less vs solvent",significant recovery
same,recovery from the state of stimulant drug dependence (CPP residence time),from the 4th day after start of administration,apparent recovery
